Reference: patent publication EP3064205A1, “Therapeutic use of isomeric forms of 2-(4-chlorophenyl)quinolin-4-yl)(piperidin-2-yl)methanol” (Glionova AB, priority 2015, dated 2016)
Like-named read-outs stand apart in the source and are kept apart here.

Tests used:
Experiment in all cases: 3D clonogenic assay (PDX)
Format in all cases: cell-based, human
[1] = system: CXF 742; conditions: CXF 742, Colorectal; for IC50: Homo sapiens
Protocol: (§1) The anti-tumor efficacy of S1 in the patient-derived tumor xenograft (PDX) tumor panel was assessed, where the efficacy of S1 in PDX tumor panel in the 96-well format, in 10 concentrations in duplicate was performed. Colony formation of tumor cell suspensions in a soft-agar matrix was observed and quantified. The output is IC50 values and dose response-relationships based on number of colonies in control and treatment wells, as identified by an automated image analysis algorithm. Stock solution of S1 was prepared in 100% DMSO at 10 mM concentration (stored at -20°C) and reused for each experiment. Compound final test concentrations: Dilution series ½ i.e.: 50µM, 15, 5, 1.5, 0.5, 0.15, 0.05, 0.015, 0.005 and 0.0015.
(§2) Tumor xenografts (also referred to as patient-derived tumor xenografts) were passaged as subcutaneous xenografts in NMRI nu/nu mice. Tumor xenograft were removed from mice under sterile conditions, mechanically disaggregated and subsequently incubated with an enzyme cocktail consisting of collagenase type IV (41 U/mL), DNase I (125 U/mL), hyaluronidase type III (100 U/mL) and dispase II (1.0 U/mL) in RPMI 1640 medium at 37°C for 60 - 120 minutes. Cells were passed through sieves of 100 µm and 40 µm mesh size and washed with RPMI 1640 medium. The percentage of viable cells was determined in a Neubauer-hemocytometer using trypan blue exclusion. Aliquots of the cells were frozen down, and stored in liquid nitrogen.
(§3) The clonogenic assay test was carried out in 96 well plate format. For each test a frozen aliquot of tumor cells prepared from tumor xenografts was thawed and assay plates were prepared as follows: each test well contained 3 layers of equal volume, 2 layers of semi-solid medium (bottom and top layer), and one layer of medium supernatant, with or without test compound. The bottom layer consisted of 0.05 mL/well Iscove's Modified Dulbecco's Medium (Invitrogen), supplemented with 20% (v/v) fetal calf serum (Sigma), 0.01% (w/v) gentamicin (Invitrogen) and 0.75% (w/v) agar (BD Biosciences). Tumor cells were added to 0.05 mL of the same culture medium supplemented with 0.4% (w/v) agar and plated onto the bottom layer. After 24 h, test compounds were added after serial dilution in DMSO and transfer in cell culture medium, and left on the cells for the duration of the experiment (continuous exposure, 0.05 mL drug overlay). Every dish included six untreated control wells and drug-treated groups in duplicate at 10 concentrations. Cultures were incubated at 37 °C and 7.5% CO2 in a humidified atmosphere for 8 to 13 days and monitored closely for colony growth using an inverted microscope. Within this period, ex vivo tumor growth lead to the formation of colonies with a diameter of >50 µm. At the time of maximum colony formation, counts were performed with an automatic image analysis system. 24 h prior to evaluation, vital colonies were stained with a sterile aqueous solution of 2-(4-iodophenyl)-3-(4-nitrophenyl)-5-phenyltetrazolium chloride (1 mg/mL, 100 µL/well). Sigmoidal concentration-response curves were fitted to the data points obtained for each tumor model using 4 parameter non-linear curve fit (Oncotest Warehouse Software). IC50 values are reported as relative IC50 values, being the concentration of test compound that give a response (inhibition of colony formation/viability) half way between the top and bottom plateau of the sigmoidal concentration-response curve (inflection point of the curve), or as absolute IC50 values, being the concentration of test compound at the intersection of the concentration-response curves with T/C = 50%. For calculation of mean IC50 values the geometric mean was used. Results are presented as mean graph plots or heat maps (individual IC50 values relative to the geometric mean IC50 value) over all cell lines as tested.

[2] = system: CXF 1103; conditions: CXF 1103, Colorectal; for IC50: Homo sapiens, CXF1103
Protocol: as §1, §2, §3

[3] = system: LXFA 289; conditions: LXFA 289, Lung Adeno; for IC50: Homo sapiens
Protocol: as §1, §2, §3

[4] = system: SXFS 117; conditions: SXFS 117, Sarcoma Soft Tissue; for IC50: Homo sapiens
Protocol: as §1, §2, §3

[5] = system: LXFA 297; conditions: LXFA 297, Lung Adeno; for IC50: Homo sapiens
Protocol: as §1, §2, §3

[6] = system: PAXF 2045; conditions: PAXF 2045, Pancreas; for IC50: Homo sapiens
Protocol: as §1, §2, §3

[7] = system: GXF 214; conditions: GXF 214, Gastric; for IC50: Homo sapiens
Protocol: as §1, §2, §3

[8] = system: CXF 94; conditions: CXF 94, Colorectal; for IC50: Homo sapiens
Protocol: as §1, §2, §3

[9] = system: PAXF 2053; conditions: PAXF 2053, Pancreas; for IC50: Homo sapiens
Protocol: as §1, §2, §3

[10] = system: PAXF 1998; conditions: PAXF 1998, Pancreas; for IC50: Homo sapiens
Protocol: as §1, §2, §3

[11] = system: LXFA 1584; conditions: LXFA 1584, Lung Adeno; for IC50: Homo sapiens
Protocol: as §1, §2, §3

[12] = system: PAXF 1872; conditions: PAXF 1872, Pancreas; for IC50: Homo sapiens
Protocol: as §1, §2, §3

IC50 ([1]; read-out: abs. IC50): 41.3 µM | IC50 ([1]; read-out: rel. IC50): 41.3 µM | IC50 ([2]; read-out: abs. IC50): 11.5 µM | IC50 ([2]; read-out: rel. IC50): 6.47 µM | IC50 ([3]; read-out: abs. IC50): 45.4 µM | IC50 ([3]; read-out: rel. IC50): 39.3 µM | IC50 ([4]; read-out: abs. IC50): 8.55 µM | IC50 ([4]; read-out: rel. IC50): 8.58 µM | IC50 ([5]; read-out: abs. IC50): 8.58 µM | IC50 ([5]; read-out: rel. IC50): 8.45 µM | IC50 ([6]; read-out: abs. IC50): 8.14 µM | IC50 ([6]; read-out: rel. IC50): 7.03 µM | IC50 ([7]; read-out: abs. IC50): 4.92 µM | IC50 ([7]; read-out: rel. IC50): 4.89 µM | IC50 ([8]; read-out: abs. IC50): 13.3 µM | IC50 ([8]; read-out: rel. IC50): 12.7 µM | IC50 ([9]; read-out: abs. IC50): 5.87 µM | IC50 ([9]; read-out: rel. IC50): 5.67 µM | IC50 ([10]; read-out: abs. IC50): 8.89 µM | IC50 ([10]; read-out: rel. IC50): 8.54 µM | IC50 ([11]; read-out: abs. IC50): 7.81 µM | IC50 ([11]; read-out: rel. IC50): 6.79 µM | IC50 ([12]; read-out: abs. IC50): 9.3 µM | IC50 ([12]; read-out: rel. IC50): 8.89 µM
Compound: O[C@H](c1cc(-c2ccc(Cl)cc2)nc2ccccc12)[C@@H]1CCCCN1 [S1, (R)-(2-(4-chlorophenyl)quinolin-4-yl)((S)-piperidin-2-yl)methanol]
b (bottom plateau of concentration-effect curve) [1]: 0 | t (top plateau of concentration-effect curve) [1]: 100 | b (bottom plateau of concentration-effect curve) [2]: 47 | t (top plateau of concentration-effect curve) [2]: 99 | b (bottom plateau of concentration-effect curve) [3]: 21 | t (top plateau of concentration-effect curve) [3]: 94 | b (bottom plateau of concentration-effect curve) [4]: 4 | t (top plateau of concentration-effect curve) [4]: 91 | b (bottom plateau of concentration-effect curve) [5]: 24 | t (top plateau of concentration-effect curve) [5]: 100 | b (bottom plateau of concentration-effect curve) [6]: 22 | t (top plateau of concentration-effect curve) [6]: 95 | b (bottom plateau of concentration-effect curve) [7]: 6 | t (top plateau of concentration-effect curve) [7]: 99 | b (bottom plateau of concentration-effect curve) [8]: 8 | t (top plateau of concentration-effect curve) [8]: 98 | b (bottom plateau of concentration-effect curve) [9]: 18 | t (top plateau of concentration-effect curve) [9]: 101 | b (bottom plateau of concentration-effect curve) [10]: 38 | t (top plateau of concentration-effect curve) [10]: 104 | b (bottom plateau of concentration-effect curve) [11]: 31 | t (top plateau of concentration-effect curve) [11]: 95 | b (bottom plateau of concentration-effect curve) [12]: 42 | t (top plateau of concentration-effect curve) [12]: 89
